Values joined by “and” are separate entries in the source; they are usually repeats but may differ in a detail not shown here. Equal values may be shown once.

The target in this assay is T1, GPR40 receptor (Homo sapiens, UniProt O14842).
T1 construct: expressed in transfected cells; host or cells: HEK293 (clone hGPR40-32)
T1 sequence (O14842 whole entry): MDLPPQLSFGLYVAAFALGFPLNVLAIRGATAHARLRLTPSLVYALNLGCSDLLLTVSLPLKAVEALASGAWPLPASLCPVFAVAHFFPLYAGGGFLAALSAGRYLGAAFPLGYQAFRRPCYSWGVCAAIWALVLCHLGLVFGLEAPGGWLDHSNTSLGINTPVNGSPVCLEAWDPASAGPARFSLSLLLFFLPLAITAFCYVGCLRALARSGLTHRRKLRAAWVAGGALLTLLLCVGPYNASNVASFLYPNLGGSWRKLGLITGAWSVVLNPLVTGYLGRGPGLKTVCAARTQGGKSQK
Nature of the assay: GPR40 in vitro assay: calcium mobilization in transfected HEK293/hGPR40-32 cells (FDSS6000). It is filed as cell-based. As to conditions: several values in one cell are separate determinations, read-out: ED50 (the source's name). Here is the method: To identify agonists of GPR40 receptor, the following assay was used to measure FFA-induced calcium mobilization in transfected cell lines HEK293/hGPR40-32: • Plate 20,000 cell/well in Corning 384 well plate (Cat# 3712); • Incubate over night (16 to 24 hours); • Remove medium; • Add 40 μl of 1×BD dye (1× signal enhancer, 1× calcium indicator dye, 1× probenecid, 0.01% BSA in DMEM/F12 media without Phenol Rad); • Incubate 30 minutes at 37° C. and 15 minutes at RT; • Read with the FDSS6000 System; • Add 20 μl of test compound (in 0.01% BSA in DMEM/F12 media without Phenol Rad); • Read for 5 minutes; • Add 20 μl of 40 μM linolenic acid or GPR40 agonist (in 0.01% BSA in DMEM/F12 media without Phenol Rad); • Read for 2 minutes.
Percentage Inhibition and/or ED50 were calculated following conventional methods.
(In general: Calcium assays in cells follow changes in intracellular calcium, usually with a dye or a luminescent sensor.)
Consider `CCC(CC)COc1ccc(C(CC(=O)O)c2ccccc2)cc1` (racemic) [Compound 11, 3-[4-(2-Ethyl-butoxy)-phenyl]-3-phenyl-propionic acid], for which the EC50 is 0.64 µM.

As for `CCC(CC)COc1ccc(C(CC(=O)O)c2ccccc2)cc1` (single isomer, unassigned) [Compound 14, 3-[4-(2-Ethyl-butoxy)-phenyl]-3-phenyl-propionic acid], the EC50 is over 30 µM.

For `CCC(CC)COc1ccc(C(CC(=O)O)c2ccccc2)cc1` (single isomer, unassigned) [Compound 15, 3-[4-(2-Ethyl-butoxy)-phenyl]-3-phenyl-propionic acid], the EC50 was 0.85 µM.

With `CC[C@@H](C)COc1ccc(C(CC(=O)O)c2ccccc2)cc1` (single isomer, unassigned) [Compound 16, 3-[4-(2-Methyl-butoxy)-phenyl]-3-phenyl-propionic acid], the EC50 came to 0.71 µM.

On to `CC[C@H](C)COc1ccc(C(CC(=O)O)c2ccccc2)cc1` (single isomer, unassigned) [Compound 17, 3-[4-(2-Methyl-butoxy)-phenyl]-3-phenyl-propionic acid], for which the EC50 is 0.56 µM.

Regarding `CC[C@@H](C)COc1ccc(C(CC(=O)O)c2ccccc2)cc1` (single isomer, unassigned) [Compound 18, 3-[4-(2-Methyl-butoxy)-phenyl]-3-phenyl-propionic acid], the EC50 is over 10 µM.

For `CC[C@H](C)COc1ccc(C(CC(=O)O)c2ccccc2)cc1` (single isomer, unassigned) [Compound 19, 3-[4-(2-Methyl-butoxy)-phenyl]-3-phenyl-propionic acid], the EC50 was over 10 µM.

Turning to `CCCOc1ccc(C(CC(=O)O)c2ccccc2)cc1` (stereo not drawn) [Compound 1, 3-Phenyl-3-(4-propoxy-phenyl)-propionic acid], the EC50 was determined as 3.7 µM.

Consider `CCCCOc1ccc(C(CC(=O)O)c2ccccc2)cc1` (stereo not drawn) [Compound 2, 3-(4-Butoxy-phenyl)-3-phenyl-propionic acid], for which the EC50 is 1.43 µM and 0.96 µM.

For `CCCCCOc1ccc(C(CC(=O)O)c2ccccc2)cc1` (stereo not drawn) [Compound 3, 3-(4-Pentyloxy-phenyl)-3-phenyl-propionic acid], the EC50 is 3.3 µM and 4.2 µM and 1.4 µM.

On to `CCCCCCOc1ccc(C(CC(=O)O)c2ccccc2)cc1` (stereo not drawn) [Compound 4, 3-(4-Hexyloxy-phenyl)-3-phenyl-propionic acid], for which the EC50 amounted to 2.88 µM.

Turning to `CCCCCCCOc1ccc(C(CC(=O)O)c2ccccc2)cc1` (stereo not drawn) [Compound 5, 3-(4-Heptyloxy-phenyl)-3-phenyl-propionic acid], the EC50 amounted to 4.26 µM.

Consider `O=C(O)CC(c1ccccc1)c1ccc(OCCCC(F)(F)F)cc1` (stereo not drawn) [Compound 6, 3-Phenyl-3-[4-(4,4,4-trifluoro-butoxy)-phenyl]-propionic acid], for which the EC50 turned out to be 3.16 µM.

For the molecule `CC(C)CCOc1ccc(C(CC(=O)O)c2ccccc2)cc1` (stereo not drawn) [Compound 7, 3-[4-(3-Methyl-butoxy)-phenyl]-3-phenyl-propionic acid], the EC50 is 1.81 µM and 2.58 µM and 1.18 µM.

Turning to `C=C(C)CCOc1ccc(C(CC(=O)O)c2ccccc2)cc1` (stereo not drawn) [Compound 8, 3-[4-(3-Methyl-but-3-enyloxy)-phenyl]-3-phenyl-propionic acid], the EC50 came out at 2.71 µM.

`CC=CCOc1ccc(C(CC(=O)O)c2ccccc2)cc1` (stereo not drawn) [Compound 9, 3-(4-But-2-enyloxy-phenyl)-3-phenyl-propionic acid]: the EC50 turned out to be 2.71 µM.

Regarding `COCCCOc1ccc(C(CC(=O)O)c2ccccc2)cc1` (stereo not drawn) [Compound 10, 3-[4-(3-methoxy-propoxy)-phenyl]-3-phenyl-propionic acid], the EC50 is 7.58 µM.

For the molecule `CCC(C)COc1ccc(C(CC(=O)O)c2ccccc2)cc1` (stereo not drawn) [Compound 12, 3-[4-(2-Methyl-butoxy)-phenyl]-3-phenyl-propionic acid], the EC50 was 0.33 µM and 0.26 µM.

In the case of `CC1CCC(Oc2ccc(C(CC(=O)O)c3ccccc3)cc2)CC1` (stereo not drawn) [Compound 13, 3-[4-(4-Methyl-cyclohexyloxy)-phenyl]-3-phenyl-propionic acid], the EC50 is 7.32 µM.

Regarding `CCCCOc1ccc(C(CC(=O)O)c2cccc(F)c2)cc1` (stereo not drawn) [Compound 20, 3-(4-Butoxy-phenyl)-3-(3-fluoro-phenyl)-propionic acid], the EC50 worked out at 1.44 µM.

For the molecule `CCCCOc1ccc(C(CC(=O)O)c2cccc(C(F)(F)F)c2)cc1` (stereo not drawn) [Compound 21, 3-(4-Butoxy-phenyl)-3-(3-trifluoromethyl-phenyl)-propionic acid], the EC50 was determined as 2.84 µM.

Consider `CCCCOc1ccc(C(CC(=O)O)c2ccccc2O)cc1` (stereo not drawn) [Compound 22, 3-(4-Butoxy-phenyl)-3-(2-hydroxy-phenyl)-propionic acid], for which the EC50 is 4.8 µM.

For `CCCCOc1ccc(C(CC(=O)O)c2cccs2)cc1` (stereo not drawn) [Compound 23, 3-(4-Butoxy-phenyl)-3-thiophen-2-yl-propionic acid], the EC50 was 0.96 µM and 1.61 µM.

For `COCCOc1ccc(C(CC(=O)O)c2ccccc2)cc1` (stereo not drawn) [Compound 24, 3-[4-(2-Methoxy-ethoxy)-phenyl]-3-phenyl-propionic acid], the EC50 is over 10 µM.

For `CCC(CC)Oc1ccc(C(CC(=O)O)c2ccccc2)cc1` (stereo not drawn) [Compound 25, 3-[4-(1-Ethyl-propoxy)-phenyl]-3-phenyl-propionic acid], the EC50 is over 10 µM.

Turning to `CCCCOc1ccc(C(CC(=O)O)c2ccc(OC(F)(F)F)cc2)cc1` (stereo not drawn) [Compound 26, 3-(4-Butoxy-phenyl)-3-(4-trifluoromethoxy-phenyl)-propionic acid], the EC50 is over 10 µM.

As for `CC(C)(C)CCOc1ccc(C(CC(=O)O)c2ccccc2)cc1` (stereo not drawn) [Compound 28, 3-[4-(3,3-Dimethyl-butoxy)-phenyl]-3-phenyl-propionic acid], the EC50 is over 10 µM.

The values are drawn from patent US7750048B2, “GPR40 agonists” (Janssen Pharmaceutica NV, priority 2006, dated 2010).
